pIC50: −log10 of the molar value.
Tested on: 755483-174-R-J1-PDC complex spheroid growth, percent test/control
Experiment: Anticancer human tumor 755483-174-R-J1-PDC patient-derived rhabdomyosarcoma cell line growth inhibition [Asc]
Settings: for pIC50: curve of first compound; for viability, T/C: stronger effect = lower value
How it was run: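 Concentration series start at each agent's clinical Cmax, or at 10 microM when none is established, and drop in half-log steps; agents are applied alone or together to complex spheroids built with HUVEC and hMSC.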

[1] = second compound 0.1 µM, first compound 0.0316 µM
[2] = second compound 0.1 µM, first compound 0.1 µM
[3] = second compound 0.1 µM, first compound 0.316 µM
[4] = second compound 0.1 µM, first compound 1 µM
[5] = second compound 0.1 µM, first compound 3.16 µM
[6] = second compound 0.1 µM, first compound 10 µM
[7] = second compound 0.316 µM, first compound 0.0316 µM
[8] = second compound 0.316 µM, first compound 0.1 µM
[9] = second compound 0.316 µM, first compound 0.316 µM
[10] = second compound 0.316 µM, first compound 1 µM
[11] = second compound 0.316 µM, first compound 3.16 µM
[12] = second compound 0.316 µM, first compound 10 µM
[13] = second compound 1 µM, first compound 0.0316 µM
[14] = second compound 1 µM, first compound 0.1 µM
[15] = second compound 1 µM, first compound 0.316 µM
[16] = second compound 1 µM, first compound 1 µM
[17] = second compound 1 µM, first compound 3.16 µM
[18] = second compound 1 µM, first compound 10 µM
[19] = second compound 3.16 µM, first compound 0.0316 µM
[20] = second compound 3.16 µM, first compound 0.1 µM
[21] = second compound 3.16 µM, first compound 0.316 µM
[22] = second compound 3.16 µM, first compound 1 µM
[23] = second compound 3.16 µM, first compound 3.16 µM
[24] = second compound 3.16 µM, first compound 10 µM
[25] = second compound 10 µM, first compound 0.0316 µM
[26] = second compound 10 µM, first compound 0.1 µM
[27] = second compound 10 µM, first compound 0.316 µM
[28] = second compound 10 µM, first compound 1 µM
[29] = second compound 10 µM, first compound 3.16 µM
[30] = second compound 10 µM, first compound 10 µM
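Also: spheroids exposed to compounds for seven days before readout.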

SMILES	pIC50 (second compound 0.1 µM)	pIC50 (second compound 0.316 µM)	pIC50 (second compound 1 µM)	pIC50 (second compound 3.16 µM)	pIC50 (second compound 10 µM)	viability, T/C [1] [%]	viability, T/C [2] [%]	viability, T/C [3] [%]	viability, T/C [4] [%]	viability, T/C [5] [%]	viability, T/C [6] [%]	viability, T/C [7] [%]	viability, T/C [8] [%]	viability, T/C [9] [%]	viability, T/C [10] [%]	viability, T/C [11] [%]	viability, T/C [12] [%]	viability, T/C [13] [%]	viability, T/C [14] [%]	viability, T/C [15] [%]	also measured
C=C(F)C(=O)N1CCN(c2nc(OCC3CCCN3C)nc3c2CCN(c2cccc4cccc(Cl)c24)C3)CC1CC#N (stereo not given) + Cc1c(S(C)(=O)=O)c(-c2cc(F)cc(N3CCN(c4ccc(NS(=O)(=O)c5ccc(NC(CCN6CCC(C(=O)OCCCP(=O)(O)O)CC6)CSc6ccccc6)c(S(=O)(=O)C(F)(F)F)c5)cc4)CC3)c2)c(-c2ccc(Cl)cc2)n1C(C)C	6.63	> 7.50	> 7.50	> 7.50	> 7.50	46.4	58.9	49.7	30.2	8.51	0.1	39.3	48.7	39.4	33.4	10.8	0.52	40.9	37.9	32	viability, T/C [16]: 20.3%; viability, T/C [17]: 5.1%; viability, T/C [18]: 1.75%; viability, T/C [19]: 35%; viability, T/C [20]: 27%; viability, T/C [21]: 30.6%; viability, T/C [22]: 16.5%; viability, T/C [23]: 8.95%; viability, T/C [24]: 0.11%; viability, T/C [25]: 42.9%; viability, T/C [26]: 41.7%; viability, T/C [27]: 34%; viability, T/C [28]: 20.6%; viability, T/C [29]: 11.8%; viability, T/C [30]: 0.16%
C=CC(=O)N1CCN(c2nc(=O)n(-c3c(C)ccnc3C(C)C)c3nc(-c4c(O)cccc4F)c(F)cc23)C(C)C1 (stereo not given) + Cc1c(S(C)(=O)=O)c(-c2cc(F)cc(N3CCN(c4ccc(NS(=O)(=O)c5ccc(NC(CCN6CCC(C(=O)OCCCP(=O)(O)O)CC6)CSc6ccccc6)c(S(=O)(=O)C(F)(F)F)c5)cc4)CC3)c2)c(-c2ccc(Cl)cc2)n1C(C)C	< 5.00	5.26	> 7.50	< 5.00	> 7.50	79.5	46.7	58.4	72.9	62.3	56.2	45.4	64.7	44.5	57.1	53.2	46.9	47.2	47.4	54.8	viability, T/C [16]: 49%; viability, T/C [17]: 49.3%; viability, T/C [18]: 37.7%; viability, T/C [19]: 52.4%; viability, T/C [20]: 46%; viability, T/C [21]: 51.9%; viability, T/C [22]: 63.2%; viability, T/C [23]: 48.3%; viability, T/C [24]: 48.8%; viability, T/C [25]: 35%; viability, T/C [26]: 34.6%; viability, T/C [27]: 50.2%; viability, T/C [28]: 42.6%; viability, T/C [29]: 32.8%; viability, T/C [30]: 42.7%

Source: PubChem BioAssay AID1963434 (Molecular Pharmacology Branch, DTP, NCI, 2024)
